{
  "source": "PubChem BioAssay AID328",
  "about": "(DTP/NCI, 2004)",
  "tested_on": "BDF1 mice, P388 leukemia ip, median survival T/C",
  "test": "NCI In Vivo Anticancer Drug Screen. Data for tumor model P388 Leukemia (intraperitoneal) in B6D2F1 (BDF1) mice",
  "settings": "endpoint: median survival time, higher = longer survival",
  "in_short": "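Reported as T/C, where T is the survival measurement in dosed animals and C the same measurement in vehicle controls.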",
  "key": {"[1]": {"settings": "dose: 100.0 mg/kg/injection, schedule: Q04DX003 (ip), vehicle: saline"}, "[2]": {"settings": "dose: 200.0 mg/kg/injection, schedule: Q04DX003 (ip), vehicle: saline"}},
  "note": "Values joined by “and” are separate entries in the source; they are usually repeats but may differ in a detail not shown here. Equal entries are not always repeated. Toxic doses and inconclusive results are not listed. Residues, ends and D or L forms follow the SMILES beside them.",
  "data": [
    {"smiles": "CC(Br)CNC(=O)c1ccc([N+](=O)[O-])cc1", "note": "(stereo unspecified)", "values": [
      {"measurement": "T/C", "setting": "dose: 25.0 mg/kg/injection, schedule: Q04DX003 (ip), vehicle: Klucel (hydroxypropylcellulose) (HPC)", "value": "109 % of control"},
      {"measurement": "T/C", "setting": "dose: 50.0 mg/kg/injection, schedule: Q04DX003 (ip), vehicle: Klucel (hydroxypropylcellulose) (HPC)", "value": "109 % of control"},
      {"measurement": "T/C", "setting": "dose: 100.0 mg/kg/injection, schedule: Q04DX003 (ip), vehicle: Klucel (hydroxypropylcellulose) (HPC)", "value": "100 % of control"}
    ]},
    {"smiles": "O=CC1(C(O)C2SCCCS2)SCCCS1", "note": "(stereo unspecified)", "values": [
      {"measurement": "T/C", "setting": "dose: 12.5 mg/kg/injection, schedule: Q01DX001 (ip), vehicle: other", "value": "95 % of control"},
      {"measurement": "T/C", "setting": "dose: 25.0 mg/kg/injection, schedule: Q01DX001 (ip), vehicle: other", "value": "104 % of control"},
      {"measurement": "T/C", "setting": "dose: 50.0 mg/kg/injection, schedule: Q01DX001 (ip), vehicle: other", "value": "109 % of control"}
    ]},
    {"smiles": "NC(=O)CNC1=C(N2CC2)C(=O)C(NCC(N)=O)=C(N2CC2)C1=O", "values": [
      {"measurement": "T/C", "setting": "dose: 2.0 mg/kg/injection, schedule: Q01DX009 (ip), vehicle: saline", "value": "171 % of control"},
      {"measurement": "T/C", "setting": "dose: 4.0 mg/kg/injection, schedule: Q01DX009 (ip), vehicle: saline", "value": "166 % of control"},
      {"measurement": "T/C", "setting": "dose: 8.0 mg/kg/injection, schedule: Q01DX009 (ip), vehicle: saline", "value": "116 % of control"}
    ]},
    {"smiles": "Cn1c(=O)c2nc(-c3ccc(Cl)cc3)c(-c3ccc(Cl)cc3)nc2n(C)c1=O", "values": [
      {"measurement": "T/C", "setting": "dose: 100.0 mg/kg/injection, schedule: Q01DX001 (ip), vehicle: saline with Tween-80", "value": "110 % of control"},
      {"measurement": "T/C", "setting": "dose: 200.0 mg/kg/injection, schedule: Q01DX001 (ip), vehicle: saline with Tween-80", "value": "112 % of control"}
    ]},
    {"smiles": "CC(C)C(NC(=O)C(NC(=O)C(CCCN=C(N)N)NC(=O)C(N)CCCCN)C(C)C)C(N)=O", "note": "(stereo unspecified) (H-KRVV-NH2; configuration not given here)", "values": [
      {"measurement": "T/C", "setting": "dose: 12.5 mg/kg/injection, schedule: Q04DX003 (ip), vehicle: water", "value": "101 % of control"},
      {"measurement": "T/C", "setting": "dose: 25.0 mg/kg/injection, schedule: Q04DX003 (ip), vehicle: water", "value": "97 % of control"},
      {"measurement": "T/C", "setting": "dose: 50.0 mg/kg/injection, schedule: Q04DX003 (ip), vehicle: water", "value": "107 % of control"},
      {"measurement": "T/C", "setting": "dose: 100.0 mg/kg/injection, schedule: Q04DX003 (ip), vehicle: water", "value": "92 % of control"},
      {"measurement": "T/C", "setting": "dose: 200.0 mg/kg/injection, schedule: Q04DX003 (ip), vehicle: water", "value": "93 % of control"}
    ]},
    {"smiles": "CCN(CC)CCN1C(=O)c2cccc3cccc(c23)C1=O", "values": [
      {"measurement": "T/C", "setting": "dose: 50.0 mg/kg/injection, schedule: Q01DX009 (ip), vehicle: saline", "value": "105 % of control"},
      {"measurement": "T/C", "setting": "dose: 66.0 mg/kg/injection, schedule: Q01DX009 (ip), vehicle: saline", "value": "109 % of control"},
      {"measurement": "T/C", "setting": "[1]", "value": "110 % of control"},
      {"measurement": "T/C", "setting": "dose: 150.0 mg/kg/injection, schedule: Q01DX009 (ip), vehicle: saline", "value": "172 % of control and 181 % of control"},
      {"measurement": "T/C", "setting": "[2]", "value": "95 % of control"}
    ]},
    {"smiles": "NNc1nccnc1Cl", "values": [
      {"measurement": "T/C", "setting": "[1]", "value": "105 % of control"},
      {"measurement": "T/C", "setting": "[2]", "value": "103 % of control"}
    ]},
    {"smiles": "Cc1ccc(S(=O)(=O)NC(=O)NNC(=O)C(F)(F)F)cc1", "values": [
      {"measurement": "T/C", "setting": "dose: 50.0 mg/kg/injection, schedule: Q01DX009 (ip), vehicle: saline with Tween-80", "value": "114 % of control"},
      {"measurement": "T/C", "setting": "dose: 100.0 mg/kg/injection, schedule: Q01DX009 (ip), vehicle: saline with Tween-80", "value": "96 % of control"},
      {"measurement": "T/C", "setting": "dose: 200.0 mg/kg/injection, schedule: Q01DX009 (ip), vehicle: saline with Tween-80", "value": "109 % of control"}
    ]},
    {"smiles": "NC(COc1ccccc1)Cc1ccccc1", "note": "(stereo unspecified)", "values": [
      {"measurement": "T/C", "setting": "dose: 25.0 mg/kg/injection, schedule: Q04DX003 (ip), vehicle: saline with Tween-80", "value": "113 % of control"},
      {"measurement": "T/C", "setting": "dose: 25.0 mg/kg/injection, schedule: Q04DX003 (ip), vehicle: suspension in saline", "value": "90 % of control"},
      {"measurement": "T/C", "setting": "dose: 50.0 mg/kg/injection, schedule: Q04DX003 (ip), vehicle: saline with Tween-80", "value": "123 % of control"},
      {"measurement": "T/C", "setting": "dose: 50.0 mg/kg/injection, schedule: Q04DX003 (ip), vehicle: suspension in saline", "value": "90 % of control"},
      {"measurement": "T/C", "setting": "dose: 100.0 mg/kg/injection, schedule: Q04DX003 (ip), vehicle: saline with Tween-80", "value": "105 % of control"},
      {"measurement": "T/C", "setting": "[1]", "value": "109 % of control"},
      {"measurement": "T/C", "setting": "dose: 100.0 mg/kg/injection, schedule: Q04DX003 (ip), vehicle: suspension in saline", "value": "98 % of control"}
    ]},
    {"smiles": "c1ccc(CNc2ncnc3[nH]ncc23)cc1", "values": [
      {"measurement": "T/C", "setting": "dose: 8.0 mg/kg/injection, schedule: Q01DX010 (ip), vehicle: saline", "value": "86 % of control and 115 % of control"},
      {"measurement": "T/C", "setting": "dose: 16.0 mg/kg/injection, schedule: Q01DX010 (ip), vehicle: saline", "value": "86 % of control and 100 % of control"},
      {"measurement": "T/C", "setting": "dose: 32.0 mg/kg/injection, schedule: Q01DX010 (ip), vehicle: saline", "value": "95 % of control and 100 % of control"},
      {"measurement": "T/C", "setting": "dose: 64.0 mg/kg/injection, schedule: Q01DX010 (ip), vehicle: saline", "value": "100 % of control"}
    ]},
    {"smiles": "Clc1nc2nnnn2c2ccccc12", "values": [
      {"measurement": "T/C", "setting": "dose: 20.0 mg/kg/injection, schedule: Q01DX009 (ip), vehicle: saline", "value": "94 % of control"},
      {"measurement": "T/C", "setting": "dose: 40.0 mg/kg/injection, schedule: Q01DX009 (ip), vehicle: saline", "value": "95 % of control"}
    ]},
    {"smiles": "S=P(S)(c1ccccc1)c1ccccc1", "values": [
      {"measurement": "T/C", "setting": "dose: 80.5 mg/kg/injection, schedule: Q01DX009 (ip), vehicle: saline", "value": "90 % of control"},
      {"measurement": "T/C", "setting": "dose: 106.26 mg/kg/injection, schedule: Q01DX009 (ip), vehicle: saline", "value": "116 % of control"},
      {"measurement": "T/C", "setting": "dose: 241.5 mg/kg/injection, schedule: Q01DX009 (ip), vehicle: saline", "value": "95 % of control"}
    ]},
    {"smiles": "Cc1cccc2cc3c(ccc4ccccc43)c[n+]12", "values": [
      {"measurement": "T/C", "setting": "dose: 1.0 mg/kg/injection, schedule: Q01DX009 (ip), vehicle: Klucel (hydroxypropylcellulose) (HPC)", "value": "109 % of control"},
      {"measurement": "T/C", "setting": "dose: 2.0 mg/kg/injection, schedule: Q01DX009 (ip), vehicle: Klucel (hydroxypropylcellulose) (HPC)", "value": "100 % of control"},
      {"measurement": "T/C", "setting": "dose: 4.0 mg/kg/injection, schedule: Q01DX009 (ip), vehicle: Klucel (hydroxypropylcellulose) (HPC)", "value": "100 % of control"},
      {"measurement": "T/C", "setting": "dose: 8.0 mg/kg/injection, schedule: Q01DX009 (ip), vehicle: Klucel (hydroxypropylcellulose) (HPC)", "value": "113 % of control"}
    ]}
  ]
}
